The record followed here is ChEMBL document CHEMBL1201862, “PubChem BioAssay data set” (2004).

Some test systems named below: 786-0; CAKI-1; HOP-92; HT-29; M14; NCI-H23; NCI-H522; OVCAR-4; OVCAR-8; SW-620; U-251; UACC-257; A498; COLO 205; RPMI-8226; SK-OV-3.
What all share (test): NCI-60 cell line screen, 48 h

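48-hour exposure; five concentrations; linearly interpolated endpoints. GI50 = concentration required for 50% inhibition of growth.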 Activity calls are given as the source filed them. No stated cut-off is given here; in the data, active = GI50 up to about 1.1 µM and inactive = higher.

Consider `Cc1ccc(C(=O)NC2CCCCC2)cc1/N=N/N(C)C`, for which the GI50 in the experiment with 786-0, in the experiment on CAKI-1, with HOP-92, in the experiment with HT-29, with M14 and in the experiment with NCI-H23 was > 100 µM (inactive) in each case. Besides, the GI50 was 74 µM (inactive) with NCI-H522; > 100 µM (inactive) in the experiment with OVCAR-4; > 100 µM (inactive) in the experiment with OVCAR-8; > 100 µM (inactive) in the experiment on SW-620; > 100 µM (inactive) in the experiment on U-251; > 100 µM (inactive) in the experiment with UACC-257.

Consider `COC(=O)/N=C(\NC(=O)OC)Nc1ccc(Oc2ccccc2)cc1NC=O`, for which the GI50 in the experiment on 786-0 is 0.483 µM (active); with A498, 0.294 µM (active); with COLO 205, 0.2 µM (active); in the experiment on HOP-92, 24.3 µM (inactive); in the experiment on HT-29, 0.348 µM (active); in the experiment with M14, 0.401 µM (active). In addition, the GI50 is 0.824 µM (active) with NCI-H23; 0.253 µM (active) with NCI-H522; 0.891 µM (active) with OVCAR-4; 0.593 µM (active) with OVCAR-8; 2.55 µM (inactive) in the experiment with RPMI-8226; 0.215 µM (active) in the experiment with SK-OV-3. Further, the GI50 with SW-620 was 0.388 µM (active); in the experiment on U-251 it was 0.333 µM (active); with UACC-257 it was 2.48 µM (inactive).

Consider `CCCCCCCCCCCCCCCCCCOCC1(COP(=O)([O-])OCC[N+](C)(C)C)CCCO1` (stereo not given), for which the GI50 in the experiment on 786-0 is 3.73 µM (inactive); in the experiment on A498, 3.46 µM (inactive); with COLO 205, 1.87 µM (inactive); in the experiment with HOP-92, 3.27 µM (inactive); in the experiment with HT-29, 4.41 µM (inactive); with M14, 3.14 µM (inactive). Besides, the GI50 was 16.8 µM (inactive) in the experiment on NCI-H23; 1.96 µM (inactive) with NCI-H522; 2.83 µM (inactive) in the experiment on OVCAR-4; 11.2 µM (inactive) in the experiment with OVCAR-8; 2.79 µM (inactive) with RPMI-8226; 14.4 µM (inactive) with SK-OV-3. The GI50 in the experiment on U-251 is 2.33 µM (inactive); in the experiment on UACC-257, 13.9 µM (inactive).

Regarding `COC(=O)[C@@]12C=CC(=O)[C@H]3C[C@@H](C(C(C)C)C1)[C@]32OC` (stereo not given in full), the GI50 in the experiment with 786-0, in the experiment on A498, in the experiment on CAKI-1, in the experiment with COLO 205, in the experiment on HOP-92 and in the experiment on HT-29 was > 100 µM (inactive) each time. Besides, the GI50 in the experiment on M14, with NCI-H23, in the experiment with OVCAR-4, in the experiment on OVCAR-8, in the experiment on RPMI-8226 and with SK-OV-3 was > 100 µM (inactive) throughout. Further, the GI50 in the experiment on SW-620, in the experiment with U-251 and in the experiment on UACC-257 was > 100 µM (inactive) in each case.

For `COC(=O)C(=Cc1cc(OC)ccc1OC)C(=O)OC`, the GI50 with 786-0 was 23.4 µM (inactive); in the experiment on CAKI-1 it was 18.9 µM (inactive); with COLO 205, 18.2 µM (inactive); in the experiment with HOP-92, 19.2 µM (inactive); in the experiment with HT-29, 21.8 µM (inactive); in the experiment with M14, 15.3 µM (inactive). Further, the GI50 in the experiment with NCI-H522 is 15.1 µM (inactive); with OVCAR-4, 20.3 µM (inactive); in the experiment on OVCAR-8 it was 30 µM (inactive); in the experiment on RPMI-8226, 25.9 µM (inactive); in the experiment on SK-OV-3 it was 31.5 µM (inactive); with SW-620 it was 23.7 µM (inactive). Besides, the GI50 in the experiment on U-251 is 19.8 µM (inactive); with UACC-257 it was 14.1 µM (inactive).
